Assay results as given in patent US10517889B2, “Modulators of SMAD7 expression” (Ionis Pharmaceuticals, Inc., priority 2017, dated 2019).
Strand notation (5' to 3'): a small letter for the sugar, then the base; units joined by * are phosphorothioate-linked, units joined directly phosphodiester-linked; [ ] holds rarer units or linkages, { } end groups; capitals alone tell only the bases. k = constrained ethyl (cEt); [5mC] = 5-methylcytosine; d = 2'-deoxy (DNA)

Test system: human SMAD7 mRNA
Assay: Antisense inhibition of human SMAD7 mRNA expression in Hep3B cells by 3-10-3 cEt gapmers, 10,000 nM, electroporation (Example 2)
Assay type: cell-based
Details: approximately 24 hours
Method in brief: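 Hep3B cells (20,000/well) were electroporated with 10,000 nM 3-10-3 cEt gapmer (16-mer, phosphorothioate, 5-methylcytosines) and harvested after about 24 h. SMAD7 mRNA quantified by RT-qPCR with primer probe set RTS5062, normalized to total RNA by RiboGreen; percent inhibition relative to untreated cells.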

[1] = Hep3B cells, electroporation with 10,000 nM antisense oligonucleotide, SMAD7 mRNA by RT-PCR (RTS5062), relative to untreated control cells
[2] = Hep3B cells, electroporation with 10,000 nM antisense oligonucleotide, primer probe set RTS5062, relative to untreated control cells
[3] = Hep3B cells, electroporation with 10,000 nM antisense oligonucleotide, RTS5062, percent inhibition of SMAD7 mRNA relative to untreated control cells
[4] = SMAD7 mRNA, Hep3B cells, electroporation with 10,000 nM antisense oligonucleotide, primer probe set RTS5062, relative to untreated control cells
[5] = SMAD7 mRNA, Hep3B cells, 10,000 nM antisense oligonucleotide, electroporation, primer probe set RTS5062, relative to untreated control cells
[6] = Hep3B cells, electroporation, 10,000 nM antisense oligonucleotide, RTS5062, relative to untreated control cells
[7] = Hep3B cells, 10,000 nM antisense oligonucleotide, electroporation, RT-PCR primer probe set RTS5062, relative to untreated control cells

Substance: 800001 (k[5mC]*kA*kA*dG*dA*dT*dT*d[5mC]*d[5mC]*dA*dT*dT*dT*kA*kG*kG; antisense) [compound 800001]
- % Inhibition [1]: 2%

Substance: 798786 (kA*k[5mC]*kT*d[5mC]*dT*dA*dG*dT*dT*d[5mC]*dG*d[5mC]*dA*kG*kA*kG; antisense) [compound 798786]
- % inhibition of SMAD7 mRNA expression [2]: 11%

Substance: 799885 (k[5mC]*k[5mC]*k[5mC]*d[5mC]*dA*d[5mC]*dA*dG*dA*dT*d[5mC]*d[5mC]*dA*kA*k[5mC]*kT; antisense) [compound 799885]
- % Inhibition [1]: 0%

Substance: 799545 (kT*k[5mC]*k[5mC]*d[5mC]*dA*d[5mC]*d[5mC]*d[5mC]*dT*dG*dG*dT*dG*k[5mC]*kT*k[5mC]; antisense) [compound 799545]
- % Inhibition [3]: 9%

Substance: 799944 (antisense k[5mC]*kT*kG*d[5mC]*dA*dG*d[5mC]*dA*dA*dG*dA*dA*dG*kT*kG*kG) [compound 799944]
- % Inhibition [1]: 5%

Substance: 790479 (kG*kG*k[5mC]*dA*dG*d[5mC]*dA*dG*dG*dA*dG*dG*d[5mC]*kA*k[5mC]*kG; antisense) [compound 790479]
- % Inhibition [1]: 43%

Substance: 829930 (k[5mC]*kA*k[5mC]*d[5mC]*dA*dA*dT*d[5mC]*dT*dT*dG*dT*dG*kT*kT*kT; antisense) [compound 829930]
- % Inhibition [4]: 0%

Substance: 800008 (kG*kA*kA*d[5mC]*dA*dG*dA*d[5mC]*d[5mC]*dA*dG*dA*d[5mC]*k[5mC]*k[5mC]*kT; antisense) [compound 800008]
- % Inhibition [1]: 40%

Substance: 790693 (k[5mC]*kA*kA*dA*dG*dT*dA*dT*dA*d[5mC]*d[5mC]*dT*dG*kT*kT*k[5mC]; antisense) [compound 790693]
- % Inhibition [5]: 45%

Substance: 830127 (antisense k[5mC]*k[5mC]*kT*d[5mC]*d[5mC]*dG*dA*dG*dG*d[5mC]*dA*d[5mC]*d[5mC]*kA*k[5mC]*kA) [compound 830127]
- % Inhibition [1]: 62%

Substance: 829837 (k[5mC]*k[5mC]*kA*dG*dT*dA*dT*dG*d[5mC]*d[5mC]*dA*d[5mC]*d[5mC]*kA*k[5mC]*kG; antisense) [compound 829837]
- % Inhibition [4]: 16%

Substance: 830072 (kA*kT*k[5mC]*dA*dA*dA*dG*dG*dT*dA*dA*dG*d[5mC]*k[5mC]*kA*kG; antisense) [compound 830072]
- % Inhibition [1]: 28%

Substance: 799054 (antisense k[5mC]*kA*kG*dA*dA*dG*d[5mC]*d[5mC]*dT*dG*dT*dG*dG*kA*k[5mC]*kA) [compound 799054]
- % Inhibition [2]: 15%

Substance: 799656 (antisense k[5mC]*kT*kA*dA*d[5mC]*dT*dG*dG*dG*d[5mC]*dA*dG*dG*kT*k[5mC]*k[5mC]) [compound 799656]
- % inhibition of SMAD7 mRNA expression [6]: 60%

Substance: 799531 (k[5mC]*kT*kT*dT*dA*dG*d[5mC]*dA*dA*dT*dT*dT*d[5mC]*kA*kA*kA; antisense) [compound 799531]
- % Inhibition [3]: 32%

Substance: 799625 (kA*kA*kT*dG*dA*dA*dA*dG*dT*dA*d[5mC]*dA*dA*kT*k[5mC]*kT; antisense) [compound 799625]
- % Inhibition [3]: 31%

Substance: 800041 (kG*k[5mC]*k[5mC]*dA*d[5mC]*d[5mC]*dT*dA*dG*dG*d[5mC]*dA*dA*kG*kG*kG; antisense) [compound 800041]
- % Inhibition [1]: 0%

Substance: 799637 (kG*k[5mC]*kA*d[5mC]*dA*dG*dA*d[5mC]*dT*dG*d[5mC]*d[5mC]*dA*kA*kA*kT; antisense) [compound 799637]
- % inhibition of SMAD7 mRNA expression [6]: 48%

Substance: 799777 (kA*kG*kT*d[5mC]*dA*dG*d[5mC]*d[5mC]*dA*dG*dA*dA*dG*kG*kA*k[5mC]; antisense) [compound 799777]
- % inhibition of SMAD7 mRNA expression [6]: 34%

Substance: 829881 (antisense k[5mC]*kG*kT*d[5mC]*d[5mC]*dT*dG*dG*dA*dG*dT*d[5mC]*d[5mC]*kG*kG*kG) [compound 829881]
- % Inhibition [4]: 39%

Substance: 829771 (antisense kG*k[5mC]*kA*dG*dT*d[5mC]*d[5mC]*dA*dG*dG*d[5mC]*dG*dG*k[5mC]*k[5mC]*kG) [compound 829771]
- % Inhibition [5]: 22%

Substance: 830201 (antisense k[5mC]*kT*kG*dA*dA*dG*dG*d[5mC]*dT*dA*d[5mC]*dA*d[5mC]*k[5mC]*kA*kA) [compound 830201]
- % Inhibition [1]: 37%

Substance: 799893 (antisense kA*kT*kA*d[5mC]*dA*dA*dA*d[5mC]*d[5mC]*dA*d[5mC]*dT*dG*k[5mC]*kA*kT) [compound 799893]
- % Inhibition [7]: 0%

Substance: 799929 (antisense kT*kG*k[5mC]*d[5mC]*d[5mC]*dA*dG*dG*d[5mC]*dT*dT*dG*dG*kT*kT*k[5mC]) [compound 799929]
- % Inhibition [1]: 9%

Substance: 799616 (kG*kG*k[5mC]*dT*d[5mC]*d[5mC]*dT*dA*d[5mC]*d[5mC]*d[5mC]*dG*d[5mC]*k[5mC]*k[5mC]*kA; antisense) [compound 799616]
- % inhibition of SMAD7 mRNA expression [6]: 80%

Substance: 830155 (antisense kT*kG*kT*dG*d[5mC]*d[5mC]*dT*d[5mC]*dA*dG*d[5mC]*dA*dG*kT*kT*kA) [compound 830155]
- % Inhibition [1]: 38%

Substance: 799063 (antisense kT*kG*kG*dT*dT*d[5mC]*dT*dG*dG*dT*dT*d[5mC]*dG*kG*k[5mC]*k[5mC]) [compound 799063]
- % inhibition of SMAD7 mRNA expression [2]: 9%

Substance: 799046 (antisense kG*kG*k[5mC]*dT*dT*dT*d[5mC]*d[5mC]*d[5mC]*dA*dG*dG*d[5mC]*kT*kG*kG) [compound 799046]
- % inhibition of SMAD7 mRNA expression [2]: 0%

Substance: 798879 (kA*k[5mC]*kG*dG*d[5mC]*dT*dG*d[5mC]*dT*dG*d[5mC]*dA*dT*kA*kA*kA; antisense) [compound 798879]
- % Inhibition [1]: 57%

Substance: 772595 (kA*k[5mC]*k[5mC]*dA*d[5mC]*dG*d[5mC]*dA*d[5mC]*d[5mC]*dA*dG*dT*kG*kT*kG; antisense) [compound 772595]
- % Inhibition [5]: 2%

Substance: 799916 (antisense k[5mC]*kA*k[5mC]*dA*dA*dA*dT*d[5mC]*dA*dA*dA*dA*dG*k[5mC]*kT*k[5mC]) [compound 799916]
- % Inhibition [7]: 47%

Substance: 799519 (antisense kA*kA*k[5mC]*dT*dT*dA*dA*dG*dT*dA*dG*dA*dG*k[5mC]*kA*kA) [compound 799519]
- % inhibition of SMAD7 mRNA expression [6]: 44%

Substance: 772714 (kA*kG*kG*dT*dG*dA*dT*dA*dA*d[5mC]*dA*d[5mC]*d[5mC]*k[5mC]*kA*kT; antisense) [compound 772714]
- % Inhibition [5]: 0%

Substance: 799380 (antisense k[5mC]*kT*k[5mC]*d[5mC]*dT*dA*d[5mC]*dT*dG*dT*dA*dA*dG*kA*kG*kG) [compound 799380]
- % inhibition of SMAD7 mRNA expression [2]: 1%

Substance: 829832 (kT*kG*kA*d[5mC]*d[5mC]*dG*dA*dT*d[5mC]*d[5mC]*d[5mC]*d[5mC]*dA*kG*kG*k[5mC]; antisense) [compound 829832]
- % Inhibition [4]: 51%

Substance: 799553 (k[5mC]*k[5mC]*k[5mC]*d[5mC]*dG*d[5mC]*dT*dA*dG*dG*dG*dA*dA*k[5mC]*kA*kA; antisense) [compound 799553]
- % Inhibition [3]: 46%
